Values of other authors as cited in patent US20090239878A1, “COMBINATIONS OF (A) AN ATP-COMPETITIVE INHIBITOR OF C-ABL KINASE ACTIVITY WITH (B) TWO OR MORE OTHER ANTINEOPLASTIC AGENTS” (priority 2002, published 2009).

What was measured:
[1] = tested on: CEM/ara-C/I monoclonal clone; settings: ara-C resistant cell line versus CEM/0
[2] = target: c-kit receptor (Homo sapiens, UniProt P10721); settings: preclinical studies
[3] = tested on: platelet-derived growth factor receptor; settings: preclinical studies

Sequence of c-kit receptor (P10721 26-976): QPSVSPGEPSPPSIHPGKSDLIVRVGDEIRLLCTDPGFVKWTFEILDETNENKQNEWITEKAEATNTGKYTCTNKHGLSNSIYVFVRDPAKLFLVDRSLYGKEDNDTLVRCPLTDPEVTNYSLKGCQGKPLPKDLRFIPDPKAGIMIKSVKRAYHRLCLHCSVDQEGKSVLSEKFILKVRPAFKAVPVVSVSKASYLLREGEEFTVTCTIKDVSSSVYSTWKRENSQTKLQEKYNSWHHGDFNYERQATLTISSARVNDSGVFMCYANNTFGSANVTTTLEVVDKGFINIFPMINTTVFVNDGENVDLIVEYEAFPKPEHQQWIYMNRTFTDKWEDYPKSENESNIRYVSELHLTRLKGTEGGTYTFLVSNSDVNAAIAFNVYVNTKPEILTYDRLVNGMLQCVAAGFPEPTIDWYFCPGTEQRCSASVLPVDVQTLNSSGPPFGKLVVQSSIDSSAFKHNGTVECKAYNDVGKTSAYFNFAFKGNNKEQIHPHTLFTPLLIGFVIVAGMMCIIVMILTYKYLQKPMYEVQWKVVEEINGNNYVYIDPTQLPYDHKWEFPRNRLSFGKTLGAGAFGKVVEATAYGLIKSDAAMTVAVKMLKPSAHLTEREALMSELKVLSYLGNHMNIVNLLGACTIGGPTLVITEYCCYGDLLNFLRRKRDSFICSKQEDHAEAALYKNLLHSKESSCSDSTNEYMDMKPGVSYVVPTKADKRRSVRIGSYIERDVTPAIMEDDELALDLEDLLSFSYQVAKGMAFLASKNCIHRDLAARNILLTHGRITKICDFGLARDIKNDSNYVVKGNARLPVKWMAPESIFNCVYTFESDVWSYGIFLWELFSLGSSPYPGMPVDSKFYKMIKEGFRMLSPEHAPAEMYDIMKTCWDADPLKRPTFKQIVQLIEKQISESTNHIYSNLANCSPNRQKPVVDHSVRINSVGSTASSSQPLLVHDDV

Nc1ccn([C@@H]2O[C@H](CO)[C@@H](O)[C@@H]2O)c(=O)n1 [ara-C, cytosine arabinoside]
sensitivity to ara-C relative to wild type [1]: less than 1 % of the wild type CEM/0 cell line

N-{5-[4-(4-methyl-piperazino-methyl)-benzoylamido]-2-methylphenyl}-4-(3-pyridyl)-2-pyrimidine-amine [STI571]
inhibition of kinase activity [2]: inhibits the kinase activities
inhibition of kinase activity [3]: inhibits the kinase activities
